According to patent US20260103461A1, “ESTROGEN RECEPTOR MODULATORS AND USES THEREOF” (Olema Pharmaceuticals, Inc., priority 2022, published 2026):

Molecular target: T1, estrogen receptor (Homo sapiens, UniProt P03372)
T1 construct: endogenous in cells; host or cells: ECC-1 cells
T1 sequence (P03372 1-595): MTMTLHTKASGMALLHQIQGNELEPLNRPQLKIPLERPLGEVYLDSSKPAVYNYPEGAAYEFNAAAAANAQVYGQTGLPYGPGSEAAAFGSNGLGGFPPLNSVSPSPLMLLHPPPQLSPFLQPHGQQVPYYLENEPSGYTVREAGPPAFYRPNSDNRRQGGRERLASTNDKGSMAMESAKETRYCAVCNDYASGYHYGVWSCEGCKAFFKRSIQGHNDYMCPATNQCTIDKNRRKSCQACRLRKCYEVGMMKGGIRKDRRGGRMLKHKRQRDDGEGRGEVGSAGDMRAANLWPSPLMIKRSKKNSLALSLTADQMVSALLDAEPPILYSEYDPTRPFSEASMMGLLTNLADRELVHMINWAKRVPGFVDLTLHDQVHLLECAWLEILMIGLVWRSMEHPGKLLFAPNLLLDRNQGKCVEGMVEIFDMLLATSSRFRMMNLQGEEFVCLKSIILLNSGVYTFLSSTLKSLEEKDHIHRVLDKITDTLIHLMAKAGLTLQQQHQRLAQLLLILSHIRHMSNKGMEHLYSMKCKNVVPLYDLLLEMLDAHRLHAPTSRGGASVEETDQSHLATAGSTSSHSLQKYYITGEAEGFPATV
Assay: AP (alkaline phosphatase) assay in ECC-1 cells, agonist mode and antagonist mode
Format: cell-based
Conditions: 3 days, absence of E2 (agonist mode) or 500 pM E2 (antagonist mode), AP activity normalized to 500 pM E2 alone
Experimental: ECC-1 cells were trypsinized and resuspended in hormone-depleted media and plated at a density of 15 k cells per well into a 96-well plate for at least 4 hours. Cells were treated with test compounds in the absence of E2 (for agonist mode) or in the presence of 500 pM E2 (for antagonist mode) for 3 days and plates were subsequently frozen at −80° C. Thawed plates were incubated with a chromogenic substrate of AP, p-nitrophenyl phosphate (Thermo Fisher Scientific), for 40 minutes at 42° C., and absorbances were read at 405 nm. AP activity was normalized to the activity of 500 pM E2 alone.
The compound numbers correspond to the compound numbers of Table 1 and 2. Compounds having an activity designated as “+” provided estrogen receptor agonism having (i) at least 80% increase in the E2-normalized signal in the AP assay (agonist mode) and (ii) no more than 80% reduction in the E2-normalized signal in the AP assay (antagonist mode). Compounds having an activity designated as “++” provided estrogen receptor antagonism having (i) between 10% and 80% increase in the E2-normalized signal in the AP assay (agonist mode) and (ii) between 10% and 80% reduction in the E2-normalized signal in the AP assay (antagonist mode).

Row | Compound | Activity (estrogen receptor modulation, agonism and antagonism)
1 | C[C@@H]1Cc2c([nH]c3ccccc23)[C@@H](c2ncc(OC3CN(CCCF)C3)s2)N1CC(C)(C)F [Example I-9, 2-[(1S,3R)-2-(2-fluoro-2-methyl-propyl)-3-methyl-1,3,4,9-tetrahydropyrido[3,4-b]indol-1-yl]-5-[1-(3-fluoropropyl)azetidin-3-yl]oxy-thiazole] | ++ (estrogen receptor antagonism having (i) between 10% and 80% increase in the E2-normalized signal in the AP assay (agonist mode) and (ii) between 10% and 80% reduction in the E2-normalized signal in the AP assay (antagonist mode))
2 | C[C@@H]1Cc2c([nH]c3ccccc23)[C@@H](c2ccc(O[C@H]3CCN(CCC(F)F)C3)s2)N1CC(C)(C)F [Example I-8, (1S,3R)-1-(5-(((S)-1-(3,3-difluoropropyl)pyrrolidin-3-yl)oxy)thiophen-2-yl)-2-(2-fluoro-2-methylpropyl)-3-methyl-2,3,4,9-tetrahydro-1H-pyrido[3,4-b]indole] | ++ (estrogen receptor antagonism having (i) between 10% and 80% increase in the E2-normalized signal in the AP assay (agonist mode) and (ii) between 10% and 80% reduction in the E2-normalized signal in the AP assay (antagonist mode))
3 | C[C@@H]1Cc2c([nH]c3ccccc23)[C@@H](c2ncc(O[C@H]3CCN(CCCF)C3)s2)N1CC(C)(C)F [Example I-6, 2-[(1S,3R)-2-(2-fluoro-2-methylpropyl)-3-methyl-1H,2H,3H,4H,9H-pyrido[3,4-b]indol-1-yl]-5-{[(3S)-1-(3-fluoropropyl)pyrrolidin-3-yl]oxy}-1,3-thiazole] | ++ (estrogen receptor antagonism having (i) between 10% and 80% increase in the E2-normalized signal in the AP assay (agonist mode) and (ii) between 10% and 80% reduction in the E2-normalized signal in the AP assay (antagonist mode))
4 | C[C@@H]1Cc2c([nH]c3ccccc23)[C@@H](c2ncc(OC3CN(CCCF)C3)s2)N1CC(F)(F)CO [Example I-22, 2,2-difluoro-3-[(1S,3R)-1-[5-[1-(3-fluoropropyl)azetidin-3-yl]oxythiazol-2-yl]-3-methyl-1,3,4,9-tetrahydropyrido[3,4-b]indol-2-yl]propan-1-ol] | ++ (estrogen receptor antagonism having (i) between 10% and 80% increase in the E2-normalized signal in the AP assay (agonist mode) and (ii) between 10% and 80% reduction in the E2-normalized signal in the AP assay (antagonist mode))
5 | C[C@@H]1Cc2c([nH]c3ccccc23)[C@@H](c2ncc(O[C@@H]3CCN(CCCF)C3)s2)N1CC(C)(C)F [Example I-11, 2-[(1S,3R)-2-(2-fluoro-2-methyl-propyl)-3-methyl-1,3,4,9-tetrahydropyrido[3,4-b]indol-1-yl]-5-[(3R)-1-(3-fluoropropyl)pyrrolidin-3-yl]oxy-thiazole] | ++ (estrogen receptor antagonism having (i) between 10% and 80% increase in the E2-normalized signal in the AP assay (agonist mode) and (ii) between 10% and 80% reduction in the E2-normalized signal in the AP assay (antagonist mode))
6 | C[C@@H]1Cc2c([nH]c3ccccc23)[C@@H](c2cnc(O[C@@H]3CON(CCCF)C3)s2)N1CC(F)(F)CO [Example I-36, 2,2-difluoro-3-[(1S,3R)-1-[2-[(4S)-2-(3-fluoropropyl)isoxazolidin-4-yl]oxythiazol-5-yl]-3-methyl-1,3,4,9-tetrahydropyrido[3,4-b]indol-2-yl]propan-1-ol] | + (estrogen receptor agonism having (i) at least 80% increase in the E2-normalized signal in the AP assay (agonist mode) and (ii) no more than 80% reduction in the E2-normalized signal in the AP assay (antagonist mode))
7 | C[C@@H]1Cc2c([nH]c3ccccc23)[C@@H](c2cnc(OC3CN(CCCF)C3)s2)N1CC(F)(F)CO [Example I-31, 2,2-difluoro-3-[(1S,3R)-1-[2-[1-(3-fluoropropyl)azetidin-3-yl]oxythiazol-5-yl]-3-methyl-1,3,4,9-tetrahydropyrido[3,4-b]indol-2-yl]propan-1-ol] | ++ (estrogen receptor antagonism having (i) between 10% and 80% increase in the E2-normalized signal in the AP assay (agonist mode) and (ii) between 10% and 80% reduction in the E2-normalized signal in the AP assay (antagonist mode))
8 | C[C@@H]1[C@H](Oc2ncc([C@@H]3c4[nH]c5ccccc5c4C[C@@H](C)N3CC(F)(F)CO)s2)CCN1CCCF [Example I-35, 2,2-difluoro-3-[(1S,3R)-1-[2-[(2R,3R)-1-(3-fluoropropyl)-2-methyl-pyrrolidin-3-yl]oxythiazol-5-yl]-3-methyl-1,3,4,9-tetrahydropyrido[3,4-b]indol-2-yl]propan-1-ol] | + (estrogen receptor agonism having (i) at least 80% increase in the E2-normalized signal in the AP assay (agonist mode) and (ii) no more than 80% reduction in the E2-normalized signal in the AP assay (antagonist mode))
9 | C[C@@H]1Cc2c([nH]c3ccccc23)[C@@H](c2sc(O[C@@H]3CCN(CCCF)C3)cc2F)N1CC(F)(F)CO [Example I-27, 2,2-difluoro-3-[(1S,3R)-1-[3-fluoro-5-[(3R)-1-(3-fluoropropyl)pyrrolidin-3-yl]oxy-2-thienyl]-3-methyl-1,3,4,9-tetrahydropyrido[3,4-b]indol-2-yl]propan-1-ol] | +++ (estrogen receptor antagonism (i) with pIC50 greater than 7.5 and at least a 10% reduction in the E2-normalized signal in the AP assay (antagonist mode); and no more than 10% increase in E2-normalized signal in the AP assay (agonist mode))
10 | CCCN1CC(Oc2ncc([C@@H]3c4[nH]c5ccccc5c4C[C@@H](C)N3CC(C)(C)F)s2)C1 [Example I-3, 5-[(1S,3R)-2-(2-fluoro-2-methylpropyl)-3-methyl-1H,2H,3H,4H,9H-pyrido[3,4-b]indol-1-yl]-2-[(1-propylazetidin-3-yl)oxy]-1,3-thiazole] | ++ (estrogen receptor antagonism having (i) between 10% and 80% increase in the E2-normalized signal in the AP assay (agonist mode) and (ii) between 10% and 80% reduction in the E2-normalized signal in the AP assay (antagonist mode))
11 | C[C@@H]1Cc2c([nH]c3ccccc23)[C@@H](c2cnc(O[C@@H]3C[C@H](C)N(CCCF)C3)s2)N1CC(F)(F)CO [Example I-29, 2,2-difluoro-3-((1S,3R)-1-(2-(((3R,5S)-1-(3-fluoropropyl)-5-methylpyrrolidin-3-yl)oxy)thiazol-5-yl)-3-methyl-1,3,4,9-tetrahydro-2H-pyrido[3,4-b]indol-2-yl)propan-1-ol] | + (estrogen receptor agonism having (i) at least 80% increase in the E2-normalized signal in the AP assay (agonist mode) and (ii) no more than 80% reduction in the E2-normalized signal in the AP assay (antagonist mode))
12 | C[C@@H]1Cc2c([nH]c3ccccc23)[C@@H](c2cnc(O[C@H]3CN(CCCF)C[C@H]3F)s2)N1CC(F)(F)CO [Example I-33, 2,2-difluoro-3-[(1S,3R)-1-[2-[(3S,4R)-4-fluoro-1-(3-fluoropropyl)pyrrolidin-3-yl]oxythiazol-5-yl]-3-methyl-1,3,4,9-tetrahydropyrido[3,4-b]indol-2-yl]propan-1-ol] | +++ (estrogen receptor antagonism (i) with pIC50 greater than 7.5 and at least a 10% reduction in the E2-normalized signal in the AP assay (antagonist mode); and no more than 10% increase in E2-normalized signal in the AP assay (agonist mode))
13 | CCN1CC[C@@H](Oc2ccc([C@@H]3c4[nH]c5ccccc5c4C[C@@H](C)N3CC(C)(C)F)s2)C1 [Example I-14, (1S,3R)-1-[5-[(3R)-1-ethylpyrrolidin-3-yl]oxy-2-thienyl]-2-(2-fluoro-2-methyl-propyl)-3-methyl-1,3,4,9-tetrahydropyrido[3,4-b]indole] | + (estrogen receptor agonism having (i) at least 80% increase in the E2-normalized signal in the AP assay (agonist mode) and (ii) no more than 80% reduction in the E2-normalized signal in the AP assay (antagonist mode))
